Assay results taken from article PMC6271730, “Bioactive Secondary Metabolites from Phomopsis sp., an Endophytic Fungus from Senna spectabilis” (Molecules, 2014).
Read-outs that look alike come from different tables or passages of the source.

Molecular target: T1, Myeloperoxidase (MPO, EC 1.11.1.7) (Homo sapiens, UniProt P05164)
T1 construct: commercial purified enzyme (Planta Natural Products, Vienna); mature heavy and light chains come from one precursor
Assay: MPO chlorination activity, taurine chloramine / TMB oxidation at […] nm
Format: biochemical

T1 sequence (P05164 165-273): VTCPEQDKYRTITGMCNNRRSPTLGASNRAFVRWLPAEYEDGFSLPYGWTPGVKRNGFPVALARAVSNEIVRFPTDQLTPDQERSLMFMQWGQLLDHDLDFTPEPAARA
T1 sequence (P05164 279-745): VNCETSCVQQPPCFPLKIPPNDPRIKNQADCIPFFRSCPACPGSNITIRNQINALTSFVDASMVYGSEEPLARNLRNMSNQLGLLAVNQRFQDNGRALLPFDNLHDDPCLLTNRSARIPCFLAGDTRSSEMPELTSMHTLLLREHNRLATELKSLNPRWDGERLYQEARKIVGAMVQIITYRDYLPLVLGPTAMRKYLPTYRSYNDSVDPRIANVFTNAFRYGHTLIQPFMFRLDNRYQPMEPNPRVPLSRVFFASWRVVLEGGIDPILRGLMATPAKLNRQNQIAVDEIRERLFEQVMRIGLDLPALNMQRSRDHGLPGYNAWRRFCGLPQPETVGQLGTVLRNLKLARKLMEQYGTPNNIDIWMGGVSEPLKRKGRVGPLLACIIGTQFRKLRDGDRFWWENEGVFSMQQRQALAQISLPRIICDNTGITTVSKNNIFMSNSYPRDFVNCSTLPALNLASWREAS

Row | SMILES | IC50 [µM] | IC50 (read-out: IC50) [µM]
1 | Cc1cc(O)cc2oc(=O)c3c(O)cc(O)cc3c12 [compound 5, alternariol] | > 50 | 
2 | COc1cc(O)c2c(=O)oc3cc(O)cc(C)c3c2c1 [compound 4, alternariol monomethyl ether] |  | > 50
